SMILES strings stand for the structures.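 1) Cells in 96-well plates. 2) Compound, 48 h, 5 concentrations. 3) Linear interpolation between surrounding doses. 4) Unreached endpoint = highest concentration. GI50 = concentration required for 50% inhibition of growth. TGI: total growth inhibition.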

The first experiment relates to UACC-62 melanoma. Nature of the experiment: NCI anticancer screen, dose series, 48 h.
In the case of `CC(=O)O[C@]12CCCCCC1C1(O)C(O)CCC[C@H]12` (some centres not stated), the TGI is more than 100 µM.

As to `COCOc1ccc(Cn2c(=O)n(C)c(=O)c3c2ncn3C)cc1[N+](=O)[O-]`, the TGI was more than 100 µM.

Take `Cc1c(S(=O)(=O)/N=C(\N)Nc2ccc(Cl)cc2)sc2ccc(Cl)cc12`: the TGI worked out at 45.4 µM.

Molecule `BrC/C=C/C[P+](c1ccccc1)(c1ccccc1)c1ccccc1` showed a TGI of 52.3 µM.

In turn, `Cc1cc(=O)c2c([nH]1)NS(=O)(=O)NC2=O` gave a TGI of more than 100 µM.

Regarding `COc1cc([N+](=O)[O-])c(OC)cc1-c1nc2sc(Cl)cn2c1/C=N/Nc1ccccn1`, the GI50 was 26 µM and the TGI is more than 50 µM.

`COc1ccc2nc3cc(Cl)ccc3c(NCCCNCCCNc3c4ccc(Cl)cc4nc4ccc(OC)cc34)c2c1` displayed a TGI of 0.189 µM.

The molecule `C=CCNC(=S)/N=C/c1c(O)c2ccccc2oc1=O` came in with a TGI of more than 100 µM.

Take `CC(=O)N(C(C)=O)C1=C2c3ccccc3N(S(=O)(=O)c3ccccc3)C2n2c(=O)n(-c3ccccc3)c(=O)n2C1` (configuration not stated): the TGI was found to be 35.8 µM.

`O=C(NC(Cc1ccc(I)cc1)C(=O)O)c1ccc(I)cc1` (configuration not stated) showed a TGI of more than 82.1 µM.

`O=c1ccc2cc3ccc4cccc5ccc(c2o1)c3c45`: the TGI is more than 100 µM.

In turn, `O=S(=O)(O)c1cc2ccc1/C=C\c1ccc(cc1S(=O)(=O)O)N=Nc1ccc(c(S(=O)(=O)O)c1)/C=C\c1ccc(cc1S(=O)(=O)O)N=N2` yielded a TGI of more than 100 µM.

The molecule `N#C/C(=C\c1cc(Br)c(O)c(Br)c1)c1cccnc1` displayed a TGI of more than 100 µM.

In a further experiment the test system is NCI-H23 lung. Nature of the experiment: NCI anticancer screen, dose series, 48 h.
In the case of `CC(=O)O[C@]12CCCCCC1C1(O)C(O)CCC[C@H]12` (some centres not stated), the TGI was more than 100 µM.

Take `COCOc1ccc(Cn2c(=O)n(C)c(=O)c3c2ncn3C)cc1[N+](=O)[O-]`: the TGI was more than 100 µM.

`Cc1c(S(=O)(=O)/N=C(\N)Nc2ccc(Cl)cc2)sc2ccc(Cl)cc12` showed a TGI of 41.5 µM.

In turn, `BrC/C=C/C[P+](c1ccccc1)(c1ccccc1)c1ccccc1` yielded a TGI of more than 100 µM.

Molecule `Cc1cc(=O)c2c([nH]1)NS(=O)(=O)NC2=O` gave a TGI of more than 100 µM.

`COc1ccc2nc3cc(Cl)ccc3c(NCCCNCCCNc3c4ccc(Cl)cc4nc4ccc(OC)cc34)c2c1` displayed a TGI of 0.144 µM.

Molecule `C=CCNC(=S)/N=C/c1c(O)c2ccccc2oc1=O` displayed a TGI of more than 100 µM.

Take `CC(=O)N(C(C)=O)C1=C2c3ccccc3N(S(=O)(=O)c3ccccc3)C2n2c(=O)n(-c3ccccc3)c(=O)n2C1` (configuration not stated): the TGI amounted to 95.9 µM.

On to `O=C(NC(Cc1ccc(I)cc1)C(=O)O)c1ccc(I)cc1` (configuration not stated), for which the TGI is more than 100 µM.

Consider `O=c1ccc2cc3ccc4cccc5ccc(c2o1)c3c45`, for which the TGI is more than 100 µM.

In the case of `O=S(=O)(O)c1cc2ccc1/C=C\c1ccc(cc1S(=O)(=O)O)N=Nc1ccc(c(S(=O)(=O)O)c1)/C=C\c1ccc(cc1S(=O)(=O)O)N=N2`, the TGI was more than 100 µM.

Molecule `N#C/C(=C\c1cc(Br)c(O)c(Br)c1)c1cccnc1` had a TGI of 52.8 µM.

Another experiment has as its system SK-MEL-2 melanoma. Nature of the experiment: NCI anticancer screen, dose series, 48 h.
Consider `CC(=O)O[C@]12CCCCCC1C1(O)C(O)CCC[C@H]12` (some centres not stated), for which the TGI was more than 100 µM.

`Cc1c(S(=O)(=O)/N=C(\N)Nc2ccc(Cl)cc2)sc2ccc(Cl)cc12` displayed a TGI of 33.9 µM.

Molecule `BrC/C=C/C[P+](c1ccccc1)(c1ccccc1)c1ccccc1` gave a TGI of 25.7 µM.

Take `Cc1cc(=O)c2c([nH]1)NS(=O)(=O)NC2=O`: the TGI is more than 100 µM.

Turning to `COc1cc([N+](=O)[O-])c(OC)cc1-c1nc2sc(Cl)cn2c1/C=N/Nc1ccccn1`, the GI50 is more than 50 µM and the TGI is more than 50 µM.

In turn, `COc1ccc2nc3cc(Cl)ccc3c(NCCCNCCCNc3c4ccc(Cl)cc4nc4ccc(OC)cc34)c2c1` displayed a TGI of 0.15 µM.

As for `C=CCNC(=S)/N=C/c1c(O)c2ccccc2oc1=O`, the TGI is more than 100 µM.

`CC(=O)N(C(C)=O)C1=C2c3ccccc3N(S(=O)(=O)c3ccccc3)C2n2c(=O)n(-c3ccccc3)c(=O)n2C1` (configuration not stated): the TGI came to 47.5 µM.

Take `O=C(NC(Cc1ccc(I)cc1)C(=O)O)c1ccc(I)cc1` (configuration not stated): the TGI was more than 100 µM.

Consider `O=c1ccc2cc3ccc4cccc5ccc(c2o1)c3c45`, for which the TGI is more than 100 µM.

In turn, `O=S(=O)(O)c1cc2ccc1/C=C\c1ccc(cc1S(=O)(=O)O)N=Nc1ccc(c(S(=O)(=O)O)c1)/C=C\c1ccc(cc1S(=O)(=O)O)N=N2` displayed a TGI of more than 100 µM.

Take `N#C/C(=C\c1cc(Br)c(O)c(Br)c1)c1cccnc1`: the TGI worked out at 44.4 µM.

The test system of the next experiment is SK-OV-3 ovarian. Put plainly: NCI anticancer screen, dose series, 48 h.
`CC(=O)O[C@]12CCCCCC1C1(O)C(O)CCC[C@H]12` (some centres not stated) displayed a TGI of more than 100 µM.

For the molecule `COCOc1ccc(Cn2c(=O)n(C)c(=O)c3c2ncn3C)cc1[N+](=O)[O-]`, the TGI is more than 100 µM.

Turning to `Cc1c(S(=O)(=O)/N=C(\N)Nc2ccc(Cl)cc2)sc2ccc(Cl)cc12`, the TGI was determined as 86.8 µM.

With `BrC/C=C/C[P+](c1ccccc1)(c1ccccc1)c1ccccc1`, the TGI was more than 100 µM.

Take `Cc1cc(=O)c2c([nH]1)NS(=O)(=O)NC2=O`: the TGI is more than 100 µM.

Regarding `COc1cc([N+](=O)[O-])c(OC)cc1-c1nc2sc(Cl)cn2c1/C=N/Nc1ccccn1`, the GI50 was 9.11 µM and the TGI turned out to be 16.5 µM.

`COc1ccc2nc3cc(Cl)ccc3c(NCCCNCCCNc3c4ccc(Cl)cc4nc4ccc(OC)cc34)c2c1` gave a TGI of 0.384 µM.

Regarding `C=CCNC(=S)/N=C/c1c(O)c2ccccc2oc1=O`, the TGI was more than 100 µM.

Molecule `CC(=O)N(C(C)=O)C1=C2c3ccccc3N(S(=O)(=O)c3ccccc3)C2n2c(=O)n(-c3ccccc3)c(=O)n2C1` (configuration not stated) had a TGI of more than 100 µM.

In turn, `O=C(NC(Cc1ccc(I)cc1)C(=O)O)c1ccc(I)cc1` (configuration not stated) yielded a TGI of more than 100 µM.

Take `O=c1ccc2cc3ccc4cccc5ccc(c2o1)c3c45`: the TGI came out at 32.6 µM.

As to `O=S(=O)(O)c1cc2ccc1/C=C\c1ccc(cc1S(=O)(=O)O)N=Nc1ccc(c(S(=O)(=O)O)c1)/C=C\c1ccc(cc1S(=O)(=O)O)N=N2`, the TGI was more than 100 µM.

The record behind these values is PubChem BioAssay (NCI).
